Common to all, as to assay: Thermal stability shift assay
Holding throughout (format): binding

The target in one assay is T1, MAP3K5 (Homo sapiens, UniProt Q99683).
T1 construct: purchased in-house (SGC Oxford thermal shift panel)
T1 sequence (Q99683 1-1374): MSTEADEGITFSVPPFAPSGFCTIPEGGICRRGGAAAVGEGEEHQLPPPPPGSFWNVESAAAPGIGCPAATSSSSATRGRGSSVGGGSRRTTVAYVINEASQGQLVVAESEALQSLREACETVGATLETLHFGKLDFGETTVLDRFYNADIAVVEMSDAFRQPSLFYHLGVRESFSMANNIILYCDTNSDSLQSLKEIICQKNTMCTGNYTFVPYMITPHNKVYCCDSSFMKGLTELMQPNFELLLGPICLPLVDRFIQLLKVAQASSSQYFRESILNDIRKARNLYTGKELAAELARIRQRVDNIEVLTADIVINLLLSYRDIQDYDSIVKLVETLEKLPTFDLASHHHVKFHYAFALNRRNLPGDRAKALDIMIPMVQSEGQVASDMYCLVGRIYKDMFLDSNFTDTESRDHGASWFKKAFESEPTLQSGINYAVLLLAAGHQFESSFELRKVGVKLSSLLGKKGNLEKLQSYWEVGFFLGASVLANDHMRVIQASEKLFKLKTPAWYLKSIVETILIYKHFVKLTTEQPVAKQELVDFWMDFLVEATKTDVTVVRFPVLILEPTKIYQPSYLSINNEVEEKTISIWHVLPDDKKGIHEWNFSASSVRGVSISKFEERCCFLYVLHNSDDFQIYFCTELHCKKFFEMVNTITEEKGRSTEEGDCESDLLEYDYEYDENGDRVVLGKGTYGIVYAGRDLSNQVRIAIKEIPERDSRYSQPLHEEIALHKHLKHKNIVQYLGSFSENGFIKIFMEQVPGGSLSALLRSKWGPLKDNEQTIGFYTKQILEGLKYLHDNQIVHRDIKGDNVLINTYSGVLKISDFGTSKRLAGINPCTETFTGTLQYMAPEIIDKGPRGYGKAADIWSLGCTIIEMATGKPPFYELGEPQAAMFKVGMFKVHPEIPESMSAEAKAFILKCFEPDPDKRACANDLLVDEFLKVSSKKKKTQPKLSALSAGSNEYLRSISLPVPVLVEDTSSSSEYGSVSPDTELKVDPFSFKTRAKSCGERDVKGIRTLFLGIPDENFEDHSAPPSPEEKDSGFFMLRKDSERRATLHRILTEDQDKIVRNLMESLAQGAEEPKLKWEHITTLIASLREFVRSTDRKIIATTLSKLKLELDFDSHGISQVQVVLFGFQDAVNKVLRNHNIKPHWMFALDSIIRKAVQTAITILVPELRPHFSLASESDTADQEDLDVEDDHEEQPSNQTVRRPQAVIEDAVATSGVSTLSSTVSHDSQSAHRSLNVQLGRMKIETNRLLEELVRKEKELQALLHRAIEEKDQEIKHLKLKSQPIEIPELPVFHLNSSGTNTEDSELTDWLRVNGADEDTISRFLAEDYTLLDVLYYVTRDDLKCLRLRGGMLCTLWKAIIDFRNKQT
The conditions noted are these: read-out: Tm shift MAP3K5. Put shortly:
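DSF read-out: SyproOrange fluorescence (1:1000) during thermal unfolding of 2 μM kinase with 10 μM compound. Buffer 10 mM HEPES pH 7.5, 500 mM NaCl; run on a real-time PCR machine.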

Another assay concerns the target T2, Erk1 (Homo sapiens, UniProt P27361).
T2 construct: purchased in-house (SGC Oxford thermal shift panel)
The conditions noted are these: read-out: Tm shift Erk1. The procedure:
(§1) Thermal denaturation experiments were carried out in an Mx3005p real-time PCR machine (Agilent) using a protein concentration of 2 μM and an inhibitor concentration of 10 μM. Samples were buffered in 10 mM HEPES (pH 7.5), 500 mM NaCl and a 1:1000 dilution of SyproOrange (Invitrogen).

In the next assay the target is PIM1 (Homo sapiens, UniProt P11309). Conditions: read-out: Tm shift PIM1. How it is done: as §1
The target in another assay is CK1e (Homo sapiens, UniProt P49674). Conditions: inhibitor 10 μM; read-out: Tm shift CK1e. The procedure:
as §1

The target in the next assay is T3, CLK1 (Homo sapiens, UniProt P49759).
T3 construct: the kinase domains of human CLK1 (residues: 148–484 (C terminus)); hexahistidine tag (TEV-cleavable) (cleaved yes); made in house; host or cells: E. coli BL21(DE3)
The conditions noted are these: inhibitor 10 μM; read-out: Tm shift CLK1. The procedure:
as §1

The target in a further assay is CLK2 (Homo sapiens, UniProt P49760). Conditions: inhibitor 10 μM; read-out: Tm shift CLK2. The procedure: as §1
A further assay has as its target T4, CLK3 (Homo sapiens, UniProt P49761).
T4 construct: purchased in-house (SGC Oxford thermal shift panel)
The conditions noted are these: inhibitor 10 μM; read-out: Tm shift CLK3. How it is done: as §1

Another assay deals with T5, CLK4 (Homo sapiens, UniProt Q9HAZ1).
T5 construct: purchased in-house (SGC Oxford thermal shift panel)
Conditions: inhibitor 10 μM; read-out: Tm shift CLK4. The procedure: as §1

The target in a further assay is T6, DYRK1A (Homo sapiens, UniProt Q13627).
T6 construct: purchased in-house (SGC Oxford thermal shift panel)
Conditions: inhibitor 10 μM; read-out: Tm shift DYRK1A. How it is done: as §1

In the next assay the target is T7, DYRK2 (Homo sapiens, UniProt Q92630).
T7 construct: purchased in-house (SGC Oxford thermal shift panel)
T7 sequence (Q92630 1-601): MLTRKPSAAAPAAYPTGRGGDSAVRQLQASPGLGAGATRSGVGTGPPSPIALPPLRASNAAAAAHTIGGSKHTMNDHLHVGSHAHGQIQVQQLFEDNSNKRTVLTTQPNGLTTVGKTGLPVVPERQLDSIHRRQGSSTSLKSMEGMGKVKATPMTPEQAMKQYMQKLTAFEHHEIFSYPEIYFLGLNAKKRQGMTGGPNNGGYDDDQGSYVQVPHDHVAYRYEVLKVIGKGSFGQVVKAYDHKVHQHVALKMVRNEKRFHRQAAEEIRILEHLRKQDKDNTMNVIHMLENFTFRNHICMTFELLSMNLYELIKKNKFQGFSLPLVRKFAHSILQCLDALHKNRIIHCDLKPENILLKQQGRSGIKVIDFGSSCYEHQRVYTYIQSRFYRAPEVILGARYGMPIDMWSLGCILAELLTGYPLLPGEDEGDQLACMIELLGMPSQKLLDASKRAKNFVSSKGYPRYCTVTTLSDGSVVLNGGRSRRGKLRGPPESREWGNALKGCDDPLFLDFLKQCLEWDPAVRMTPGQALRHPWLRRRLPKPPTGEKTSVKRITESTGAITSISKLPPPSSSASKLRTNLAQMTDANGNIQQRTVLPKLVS
The conditions noted are these: inhibitor 10 μM; read-out: Tm shift DYRK2. How it is done: as §1

SMILES strings stand for the structures. Like-named read-outs stand apart in the source and are kept apart here.

The values below come from article PMC3145970, “Specific CLK Inhibitors from a Novel Chemotype for Regulation of Alternative Splicing” (Chemistry & Biology, 2011).

Chain of PIM1 (P11309 whole entry): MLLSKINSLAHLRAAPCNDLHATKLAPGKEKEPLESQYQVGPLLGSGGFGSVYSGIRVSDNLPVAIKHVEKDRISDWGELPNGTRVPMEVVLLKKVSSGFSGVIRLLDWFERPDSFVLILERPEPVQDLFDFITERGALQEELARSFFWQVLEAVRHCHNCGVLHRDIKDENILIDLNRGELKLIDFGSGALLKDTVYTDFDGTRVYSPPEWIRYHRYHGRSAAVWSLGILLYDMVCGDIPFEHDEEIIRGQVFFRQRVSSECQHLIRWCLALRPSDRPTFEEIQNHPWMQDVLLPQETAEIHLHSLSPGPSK
T4 sequence (P49761 whole entry): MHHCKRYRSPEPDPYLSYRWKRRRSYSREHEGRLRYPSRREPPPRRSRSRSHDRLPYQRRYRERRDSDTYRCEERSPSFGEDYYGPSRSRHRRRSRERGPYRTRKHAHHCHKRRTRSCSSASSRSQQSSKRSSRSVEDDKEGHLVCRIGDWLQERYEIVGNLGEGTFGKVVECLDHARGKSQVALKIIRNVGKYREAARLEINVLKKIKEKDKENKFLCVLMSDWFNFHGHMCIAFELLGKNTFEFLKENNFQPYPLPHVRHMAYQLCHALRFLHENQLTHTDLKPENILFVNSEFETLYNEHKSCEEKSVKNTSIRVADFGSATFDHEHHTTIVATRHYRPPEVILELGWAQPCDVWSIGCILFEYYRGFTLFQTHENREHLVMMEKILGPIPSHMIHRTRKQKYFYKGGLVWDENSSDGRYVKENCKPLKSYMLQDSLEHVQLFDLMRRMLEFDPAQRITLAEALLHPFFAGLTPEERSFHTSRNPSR
T3 sequence (P49759 148-484): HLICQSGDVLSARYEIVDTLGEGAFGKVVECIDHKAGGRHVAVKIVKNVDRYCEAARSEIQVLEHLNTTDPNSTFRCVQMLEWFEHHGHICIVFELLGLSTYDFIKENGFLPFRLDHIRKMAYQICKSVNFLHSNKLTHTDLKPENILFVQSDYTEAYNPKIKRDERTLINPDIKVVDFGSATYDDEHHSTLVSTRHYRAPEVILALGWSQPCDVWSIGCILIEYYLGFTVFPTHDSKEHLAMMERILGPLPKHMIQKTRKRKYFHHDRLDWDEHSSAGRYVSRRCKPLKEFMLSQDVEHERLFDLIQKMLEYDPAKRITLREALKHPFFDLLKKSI
Chain of CLK2 (P49760 whole entry): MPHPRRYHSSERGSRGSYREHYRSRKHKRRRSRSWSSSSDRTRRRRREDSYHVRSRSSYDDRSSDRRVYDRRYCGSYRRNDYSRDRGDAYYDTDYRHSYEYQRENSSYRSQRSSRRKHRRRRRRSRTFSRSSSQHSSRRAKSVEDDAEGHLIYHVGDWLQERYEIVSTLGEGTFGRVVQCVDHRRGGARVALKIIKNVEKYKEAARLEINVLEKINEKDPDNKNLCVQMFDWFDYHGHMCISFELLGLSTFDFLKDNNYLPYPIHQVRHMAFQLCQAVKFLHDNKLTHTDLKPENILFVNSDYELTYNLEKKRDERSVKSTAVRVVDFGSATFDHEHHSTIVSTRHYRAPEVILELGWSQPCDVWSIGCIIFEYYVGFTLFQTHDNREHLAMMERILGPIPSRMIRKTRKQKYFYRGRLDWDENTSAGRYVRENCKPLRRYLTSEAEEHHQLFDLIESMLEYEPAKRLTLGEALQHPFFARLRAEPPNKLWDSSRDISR
T2 sequence (P27361 whole entry): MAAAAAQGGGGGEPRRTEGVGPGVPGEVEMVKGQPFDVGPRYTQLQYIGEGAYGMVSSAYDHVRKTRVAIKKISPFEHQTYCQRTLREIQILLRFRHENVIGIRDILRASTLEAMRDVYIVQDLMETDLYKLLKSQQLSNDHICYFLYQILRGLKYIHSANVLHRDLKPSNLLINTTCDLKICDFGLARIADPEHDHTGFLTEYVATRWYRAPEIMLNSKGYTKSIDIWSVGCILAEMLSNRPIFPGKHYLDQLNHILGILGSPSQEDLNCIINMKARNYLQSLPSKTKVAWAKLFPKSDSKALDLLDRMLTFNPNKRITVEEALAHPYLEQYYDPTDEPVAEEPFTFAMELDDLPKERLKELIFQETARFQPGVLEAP
T5 sequence (Q9HAZ1 whole entry): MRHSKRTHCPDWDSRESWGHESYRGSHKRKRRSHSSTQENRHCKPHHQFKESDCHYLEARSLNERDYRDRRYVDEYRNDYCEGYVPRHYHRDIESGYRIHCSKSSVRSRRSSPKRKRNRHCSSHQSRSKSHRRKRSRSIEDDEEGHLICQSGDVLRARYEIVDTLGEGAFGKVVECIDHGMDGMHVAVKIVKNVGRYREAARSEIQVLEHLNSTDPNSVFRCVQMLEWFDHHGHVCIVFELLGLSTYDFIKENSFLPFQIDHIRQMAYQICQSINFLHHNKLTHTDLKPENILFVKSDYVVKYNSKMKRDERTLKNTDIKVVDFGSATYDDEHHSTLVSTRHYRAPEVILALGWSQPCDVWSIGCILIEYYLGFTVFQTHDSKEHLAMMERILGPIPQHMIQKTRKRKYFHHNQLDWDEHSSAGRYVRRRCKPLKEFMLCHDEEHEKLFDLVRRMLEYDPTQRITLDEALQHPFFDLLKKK
Chain of CK1e (P49674 whole entry): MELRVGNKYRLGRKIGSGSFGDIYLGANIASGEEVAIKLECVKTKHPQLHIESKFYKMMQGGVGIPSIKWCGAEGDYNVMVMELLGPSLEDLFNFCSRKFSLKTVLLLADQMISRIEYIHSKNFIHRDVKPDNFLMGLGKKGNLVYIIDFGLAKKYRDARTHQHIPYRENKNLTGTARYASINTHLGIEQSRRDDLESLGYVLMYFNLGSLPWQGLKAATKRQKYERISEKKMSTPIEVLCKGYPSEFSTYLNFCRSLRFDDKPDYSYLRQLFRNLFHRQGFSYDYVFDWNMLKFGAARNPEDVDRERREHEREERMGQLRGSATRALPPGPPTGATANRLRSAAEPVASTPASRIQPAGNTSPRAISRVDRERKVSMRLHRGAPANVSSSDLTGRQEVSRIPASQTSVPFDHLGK

For the molecule `CCOC(=O)c1c(/C(C#N)=C\N)c2ccc(Cl)c(Cl)c2n1C` [KH-CB19, (E)-Ethyl 3-(2-Amino-1-Cyanovinyl)-6,7-Dichloro-1-Methyl-1H-Indole-2-Carboxylate], the ΔTm at 10 µM was 0.8 °C on MAP3K5, -0.3 °C at Erk1 and 2.9 °C at PIM1.

Turning to `NC1=NC(=O)/C(=C2\CCNC(=O)c3[nH]c(Br)cc32)N1` [Hymenialdisine, hymenialdisine, reference compound], the ΔTm at 10 µM on MAP3K5 (inhibitor 10 μM) came out at 8.7 °C; at CK1e, 4.8 °C; at CLK1, 7.8 °C; on CLK2, 4.4 °C; at CLK3 it was 7.2 °C; at CLK4 it was 7 °C. In addition, the results for the ΔTm at 10 µM at DYRK1A, at DYRK2 and on PIM1 (inhibitor 10 μM) were 4.4 °C, 0.8 °C and 0.6 °C, respectively.

As for `CCOC(=O)c1c(C(C#N)=CN(C)C)c2ccc(Cl)c(Cl)c2n1C` (mixture of isomers) [compound 2, (E/Z)-Ethyl 6,7-Dichloro-3-[1-Cyano-2-(Dimethylamino)Vinyl]-1-Methyl-1H-Indole-2-Carboxylate], the ΔTm at 10 µM on MAP3K5 (inhibitor 10 μM) was found to be 0.2 °C; on CK1e, 0.3 °C; at CLK1 it was 5.6 °C; on CLK2, 3 °C; on CLK3, 1.7 °C; at CLK4, 4.1 °C. Further, the ΔTm at 10 µM on DYRK1A was found to be 0.6 °C; on DYRK2, 0.7 °C; on Erk1 (inhibitor 10 μM), 0.1 °C; on PIM1 (inhibitor 10 μM), 2.5 °C.

For `CCOC(=O)c1c(C(C#N)=CN)c2ccc(Cl)c(Cl)c2n1C` (mixture of isomers) [KH-CB20, (E/Z)-Ethyl 3-(2-Amino-1-Cyanovinyl)-6,7-Dichloro-1-Methyl-1H-Indole-2-Carboxylate], the ΔTm at 10 µM amounted to 0.5 °C at MAP3K5, 0.1 °C on Erk1 and 3 °C on PIM1.

With `Cn1c2c(Cl)c(Cl)ccc2c2c(C#N)c[nH]c(=O)c21` [compound 3, 7,8-Dichloro-9-Methyl-1-Oxo-2,9-Dihydro-1H-Pyrido[3,4-b]Indole-4-Carbonitrile], the ΔTm at 10 µM was determined as 0.8 °C on MAP3K5 (inhibitor 10 μM); 0.9 °C at CK1e; 10.9 °C at CLK1; 6.3 °C on CLK2; 7.9 °C on CLK3; 9.6 °C on CLK4. In addition, the ΔTm at 10 µM was 5.1 °C at DYRK1A, 2.1 °C at DYRK2, -0.5 °C on Erk1 (inhibitor 10 μM) and 3.4 °C on PIM1 (inhibitor 10 μM).
